Assay results from patent publication US10442767B2 (priority 2012, dated 2019).
Where two headings read alike, the source gives them in different places.

Legend:
[1] = Pharmacokinetic study after single intravenous dose; assay type: in vivo, mice (CD-1); details: female, CD-1, mouse, mice, i.v. 0.75 mg/kg
Experimental: 39 mice (CD-1, 6-weeks old, female) were used in the study. […] The drugs were dissolved in PBS and administered via tail-vein injection to achieve a dose of 0.75 mg/kg of body weight. At specific times post injection (10 min, 30 min, 1 h, 2 h, 4 h and 24 h) blood and brain samples were collected. Blood samples were transferred into tubes containing 5% EDTA, stored on ice, and centrifuged (4° C., 1000 rpm, 15 min). Plasma (upper phase) was transferred to a new tube and stored at −80° C. for further analysis. Brain tissue samples were collected after intracardial perfusion of the mouse. Brain tissue samples were stored at −80° C. for further analysis. Drug quantification in plasma: Briefly, to a 1.5 mL Eppendorf tube containing 50 μl of plasma, 200 μl of ice-cold acetonitrile containing 1,000 ng/ml Progesterone (used as internal standard) was added in order to precipitate the proteins. The sample was vortexed, mixed and centrifuged at 4000×g for 10 min at 4° C. to remove precipitates. 140 μl supernatant was collected and transferred to a 500 μl 96-well polypropylene plate and covered using silicone plate mat. 40 μl of sample was injected in into LC-MS. Using the same sample preparation procedure 11 standard solutions ranging from 50 ng/mL to 100 μg/mL were prepared, analyzed by LC-MS and used as a calibration curve to correlate peak area of the samples to concentration. Drug quantification in brain: the mouse brain was weighted and 1 mL of water per 400 mg of tissue was added. The sample was homogenized using an electric tissue homogenizer. To a 1.5 mL Eppendorf tube containing 50 μl of homogenized sample, 200 μl of ice-cold acetonitrile containing 1000 ng/ml Demeclocycline (used as internal standard) was added in order to precipitate the proteins. The sample was vortexed, mixed and centrifuged at 4000×g for 10 min at 4° C. to remove precipitates. 140 μl supernatant was collected and transferred to a 500 μl 96-well polypropylene plate and covered using silicone plate mat. 40 μl of each sample was injected into LC-MS. Using the same sample preparation procedure 11 standard solutions ranging from 50 ng/mL to 100 μg/mL were prepared, analyzed by LC-MS and used as a calibration curve to correlate peak area of the samples to concentration.
(§1) The Hill equation used to fit the data from the voltage-clamp and the optic nerve experiments was as follows: y=y0+(yf−y0)*x^n/(k^n+x^n); where n refers to the Hill coefficient (typically 1±0.1) and k refers to EC50 or IC50. y0 and yf refers to the origin and final ordinate values and were fixed at 1±0.1 or 0±0.1 depending on the experiment. EC50=10^<log EC50>; where <log EC50>=average of log EC50 values from all experiments with the same drug. 95% C.I.=[Upper Limit . . . Lower Limit]; where U.L.=10^(log EC50+s.d.) and L.L.=10^(log EC50−s.d.). The half-life (t1/2) in the stability and pharmacokinetic experiments was calculated by fitting the data to the equation Ct=C0*exp(−k*t) where C0=initial concentration, Ct=concentration at time t, and k=ln 2/t1/2. Student t-test was used to compare results and P<0.05 was considered significant.

Stability in microsomes = assay type: in vitro ADME, CD1 mouse; details: mouse liver microsomes
Experimental: The stability of these drugs in mouse plasma and mouse liver microsomes was also tested. Liver microsomes contain large amounts of cytochrome P450 and can be used to estimate the metabolic stability of drugs.
study compounds were incubated at initial concentration of 1 μM with liver microsomes from CD1 mouse (0.04 mg/mL) in PBS in the presence or absence of enzyme cofactors (1.3 mM NADP^+, 3.3 mM MgCl2, 3.3 mM G6P and 1 U/ml G6PDH, 1 mM UDPGA and 4.7 μg/ml Alamethicin). After t=0, 20, 40 and 60 min, a sample was removed and the reaction was stopped by adding 1 volume of acetonitrile. The loss of compound was determined by LC-MS analysis comparing the amount of compound in the sample to the respective reference samples (without cofactors). To ensure that the assay is reliable, Propanolol and Verapamil were included as control compounds. […]
as §1, with “EC50=10^<log EC50>; where <log EC50>=average of log EC50 values from all experiments with the same drug. 95% C.I.=[Upper Limit . . . Lower Limit]; where U.L.=10^(log EC50+s.d.) and L.L.=10^(log EC50−s.d.).” left out, “Student t-test was used to compare results and P<0.05 was considered significant.” left out

C57Bl/6J mice = experiment: In vivo effects (tremor, seizures) after intraperitoneal injection; design: species or system mouse; details: i.p.; for Effect: N = 5
Experimental: A consequence of excessive K^+ channel blockage is the advent of seizures. 4-AP is known to cause seizures in mice at high doses.
At high doses, 4-AP causes tremors, muscle spasms and seizures.
10-week-old female C57Bl/6J mice were given an intraperitoneal injection of the drug under investigation and monitored continuously for 4 h. After 4 h no signs of drug effects could be observed. At least 72 h passed between injections to the same mice.

## Nc1ccncc1F [3-F-4-AP, 3-fluoro-4-aminopyridine]
[1]; brain and plasma, read-out: Cbrain/Cplasma (maximum in the brain over maximum in plasma)
  Kp: 0.214 ± 0.17
[1]; brain, read-out: half-life in brain (converted)
  half-life: 85.8 min
[1]; plasma, read-out: half-life in plasma (converted)
  half-life: 20.4 min
Stability in microsomes
  times more stable than 4-AP in microsomes: 2.7 times
C57Bl/6J mice; 30 μmol/kg
  Effect: Mouse quiet
C57Bl/6J mice; 60 μmol/kg
  Effect: Mild tremor, mouse quiet
C57Bl/6J mice; 90 μmol/kg
  duration of effect (tremors, seizures or jerks): ~30 min
  mice died of seizure: 1 of 5 mice died of seizure
  Effect: Severe tremors and seizures that start
C57Bl/6J mice; 90 μmol/kg (highest dose)
  start of tremors and seizures post-injection: 10 s
C57Bl/6J mice; mice
  in vivo potency compared with 4-AP: very similar potency to that of 4-AP
